Results published in ChEMBL document CHEMBL1140814 (Bioorg Med Chem Lett, 2008).

Columns and labels:
[1] = biological target: Muscarinic acetylcholine receptor M3 (Cavia porcellus) (UniProt Q8VH26); assay: Intrinsic activity at muscarinic M3 receptor in guinea-pig ileum assessed as ratio of agonist activity to activity of arecaidine propargyl ester; type: functional, tissue-based
[2] = biological target: T1, Muscarinic acetylcholine receptor M2 (Homo sapiens, UniProt P08172); assay: Displacement of [3H]NMS from human cloned muscarinic M2 receptor expressed in CHO cells; type: cell-based
T1 sequence (P08172 whole entry): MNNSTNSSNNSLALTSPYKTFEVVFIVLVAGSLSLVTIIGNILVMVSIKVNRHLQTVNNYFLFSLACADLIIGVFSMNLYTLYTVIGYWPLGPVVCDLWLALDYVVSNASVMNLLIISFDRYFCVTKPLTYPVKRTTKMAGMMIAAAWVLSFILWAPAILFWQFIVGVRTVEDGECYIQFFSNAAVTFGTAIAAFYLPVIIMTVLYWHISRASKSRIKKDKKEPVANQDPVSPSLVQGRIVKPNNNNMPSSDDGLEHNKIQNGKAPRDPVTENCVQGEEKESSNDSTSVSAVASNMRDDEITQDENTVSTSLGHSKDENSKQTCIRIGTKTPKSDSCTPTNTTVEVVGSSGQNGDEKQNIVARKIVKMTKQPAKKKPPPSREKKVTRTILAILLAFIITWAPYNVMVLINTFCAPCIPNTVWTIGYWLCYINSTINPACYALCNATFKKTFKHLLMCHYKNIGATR

[3] = biological target: T2, Muscarinic acetylcholine receptor M4 (Homo sapiens, UniProt P08173); assay: Displacement of [3H]NMS from human cloned muscarinic M4 receptor expressed in CHO cells; type: cell-based
T2 sequence (P08173 whole entry): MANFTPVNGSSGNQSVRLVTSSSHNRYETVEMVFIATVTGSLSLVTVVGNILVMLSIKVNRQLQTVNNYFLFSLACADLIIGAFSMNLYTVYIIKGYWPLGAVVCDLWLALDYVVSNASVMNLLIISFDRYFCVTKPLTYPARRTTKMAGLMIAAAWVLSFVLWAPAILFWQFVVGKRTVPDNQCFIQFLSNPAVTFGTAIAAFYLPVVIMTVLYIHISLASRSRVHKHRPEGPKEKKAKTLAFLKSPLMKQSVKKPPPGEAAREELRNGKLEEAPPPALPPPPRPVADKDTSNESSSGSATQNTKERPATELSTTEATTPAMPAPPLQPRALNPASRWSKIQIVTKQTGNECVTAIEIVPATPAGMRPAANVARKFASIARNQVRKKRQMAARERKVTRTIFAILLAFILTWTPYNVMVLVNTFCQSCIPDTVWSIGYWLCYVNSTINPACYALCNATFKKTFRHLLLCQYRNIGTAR

[4] = biological target: T3, Muscarinic acetylcholine receptor M5 (Homo sapiens, UniProt P08912); assay: Displacement of [3H]NMS from human cloned muscarinic M5 receptor expressed in CHO cells; type: cell-based
T3 sequence (P08912 whole entry): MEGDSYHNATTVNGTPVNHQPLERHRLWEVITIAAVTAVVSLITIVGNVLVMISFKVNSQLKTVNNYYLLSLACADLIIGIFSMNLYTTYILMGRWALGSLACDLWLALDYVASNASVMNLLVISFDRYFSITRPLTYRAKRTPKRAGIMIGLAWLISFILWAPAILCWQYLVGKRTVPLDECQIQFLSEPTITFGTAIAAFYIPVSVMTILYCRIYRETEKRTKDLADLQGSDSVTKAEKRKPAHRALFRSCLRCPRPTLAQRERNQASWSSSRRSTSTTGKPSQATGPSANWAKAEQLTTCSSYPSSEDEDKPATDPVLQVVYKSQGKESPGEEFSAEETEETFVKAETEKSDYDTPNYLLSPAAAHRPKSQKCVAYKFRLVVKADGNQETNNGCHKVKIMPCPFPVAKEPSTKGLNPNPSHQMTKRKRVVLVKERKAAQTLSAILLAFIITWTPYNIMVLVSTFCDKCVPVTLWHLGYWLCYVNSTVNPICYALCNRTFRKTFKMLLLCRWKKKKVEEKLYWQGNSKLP

[5] = Antagonist activity at muscarinic M1 receptor in rabbit vas deferens up to 10 uM; type: functional, Oryctolagus cuniculus
[6] = Intrinsic activity at muscarinic M2 receptor in guinea-pig stimulated left atria assessed as ratio of agonist activity to activity of arecaidine propargyl ester; type: functional, Cavia porcellus
[7] = Intrinsic activity at muscarinic M1 receptor in rabbit stimulated vas deferens assessed as ratio of agonist activity to activity of McN-A-343; type: functional, Oryctolagus cuniculus
[8] = Intrinsic activity at muscarinic M4 receptor in guinea-pig lung strips assessed as ratio of agonist activity to activity of arecaidine propargyl ester; type: functional, Cavia porcellus

Muscarinic acetylcholine receptor M3 (Cavia porcellus), sequence (Q8VH26 1-587): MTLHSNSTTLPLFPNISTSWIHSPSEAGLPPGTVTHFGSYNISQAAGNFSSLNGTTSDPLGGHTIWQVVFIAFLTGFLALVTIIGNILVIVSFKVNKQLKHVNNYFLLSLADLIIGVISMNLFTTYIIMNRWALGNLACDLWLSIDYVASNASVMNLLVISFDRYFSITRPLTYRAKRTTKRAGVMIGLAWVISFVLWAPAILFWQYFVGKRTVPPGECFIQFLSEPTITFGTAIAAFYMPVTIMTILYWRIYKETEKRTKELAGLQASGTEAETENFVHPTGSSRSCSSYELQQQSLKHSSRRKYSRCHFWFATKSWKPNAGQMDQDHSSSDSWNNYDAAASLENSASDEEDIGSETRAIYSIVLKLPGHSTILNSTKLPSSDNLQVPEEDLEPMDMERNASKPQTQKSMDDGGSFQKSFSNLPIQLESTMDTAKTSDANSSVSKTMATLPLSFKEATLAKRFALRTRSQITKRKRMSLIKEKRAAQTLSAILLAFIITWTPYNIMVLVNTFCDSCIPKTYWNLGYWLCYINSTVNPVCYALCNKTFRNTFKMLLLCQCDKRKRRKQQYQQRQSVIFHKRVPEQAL

Row | SMILES | pD2 [1] | Ki [2] | Ki [3] | Ki [4] | pD2 [5] | Intrinsic activity [6] | pD2 [7] | Intrinsic activity [1] | pD2 [6] | Intrinsic activity [7] | Intrinsic activity [8] | pD2 [8]
1 | CC1COCC(C[N+](C)(C)C)O1 (racemic; form 1) | 7.34 | – | – | – | – | – | – | – | – | – | – | –
2 | C[C@@H]1COC[C@H](C[N+](C)(C)C)O1.[I-] | 6.53 | 6.92 µM | 69.2 µM | 44.7 µM | <5 | 1 | – | – | – | – | – | –
3 | CC1COCC(C[N+](C)(C)C)O1.[I-] (racemic; form 2) | – | 4.9 µM | 87.1 µM | 67.6 µM | – | – | 5.08 | – | – | – | – | –
4 | CC1OC(C[N+](C)(C)C)CC1O (racemic) | 7.29 | – | – | – | – | 1 | – | 1 | 6.72 | – | – | –
5 | CC1COCC(C[N+](C)(C)C)O1.[I-] (racemic; form 1) | – | 2.09 µM | 11.5 µM | 7.76 µM | – | 1 | 5.65 | – | – | 1 | – | –
6 | C[C@H]1COC[C@H](C[N+](C)(C)C)O1.[I-] | 6.26 | 5.25 µM | 45.7 µM | – | – | 0.9 | – | – | 6.18 | – | 0.77 | 5.79
7 | C[C@@H]1COC[C@@H](C[N+](C)(C)C)O1.[I-] | 4.54 | 61.7 µM | > 100 µM | 87.1 µM | – | 0.62 | – | – | 5.27 | – | 0.42 | 5.22
8 | C[C@H]1COC[C@@H](C[N+](C)(C)C)O1.[I-] | 7.65 | 1.26 µM | 9.77 µM | 4.57 µM | – | – | 6.78 | – | – | 1 | 1 | –
